In ChEMBL document CHEMBL1157539, “Thousands of chemical starting points for antimalarial lead identification” (Nature, 2010):
Structures can show the parent of a compound that is named as a salt.

System: Plasmodium falciparum
Assay: GSK_TCMDC: Inhibition of Plasmodium falciparum 3D7 in whole erythrocytes, using parasite LDH activity as an index of growth.
Type: functional, organism-based

## NS(=O)(=O)NCCCN1CCN(c2ccccc2)CC1
Plasmodium falciparum, 3D7
  XC50: 977 nM

## CC(=O)Nc1ccc(CN(Cc2cccc(OC(C)(C)C)c2)Cc2ccc3c(c2)OCCO3)cc1
Plasmodium falciparum, 3D7
  XC50: 136 nM

## Nc1ccc2[nH]cc(C3CCN(CC4CCC(NC(=O)/C=C/c5ccc(Cl)c(Cl)c5)CC4)CC3)c2n1 (centres undefined)
Plasmodium falciparum, 3D7
  XC50: 731 nM

## O=C(c1ccc([N+](=O)[O-])o1)N1CCC(c2cn(Cc3cccc(F)c3)c3ccccc23)CC1
Plasmodium falciparum, 3D7
  XC50: 637 nM

## CC(C)N1CCN(CCCNc2c3ccccc3nc3ccccc23)CC1
Plasmodium falciparum, 3D7
  XC50: 233 nM

## Cc1cc2c(NC(=O)NC3CCN(CCc4ccccc4Cl)CC3)cccc2cn1
Plasmodium falciparum, 3D7
  XC50: 387 nM

## Cc1cnccc1/C=C/c1cccc(OCCCN2CCc3ccc(S(C)(=O)=O)cc3CC2)c1
Plasmodium falciparum, 3D7
  XC50: 615 nM

## CN(C)c1cc2c(Nc3ccc4nc(Cc5ccccc5)[nH]c4c3)ncnc2cn1 [GW301888X]
Plasmodium falciparum, 3D7
  XC50: 1140 nM

## CCOc1ccc2[nH]c(C)cc(=NN=Cc3ccc(Cl)cc3)c2c1
Plasmodium falciparum, 3D7
  XC50: 763 nM

## CCCCNCc1ccc(-c2nc(CN(CCCn3ccnc3)C(=O)C3COc4ccccc4O3)cs2)cc1 (centres undefined)
Plasmodium falciparum, 3D7
  XC50: 892 nM

## Cc1ccccc1C1CCN(C2CCC(NC(=O)c3cc4cc(Cl)ccc4o3)CC2)CC1 (centres undefined)
Plasmodium falciparum, 3D7
  XC50: 1200 nM

## Fc1cccc(COc2ccc(Nc3ncnc4sc(C#C[C@H]5CCCN5)cc34)cc2F)c1
Plasmodium falciparum, 3D7
  XC50: 871 nM

## COc1cccc(CN(C(=O)Nc2ccccc2F)[C@H]2C[C@H]3C(=O)Nc4cc(F)ccc4C(=O)N3C2)c1
Plasmodium falciparum, 3D7
  XC50: 841 nM

## c1ccc(CN2CCN(c3cc(-c4cncc(-c5ccccc5)c4)nc(-c4ccccc4)n3)CC2)cc1
Plasmodium falciparum, 3D7
  XC50: 1040 nM

## CC(O)C1CCCCN1C(=O)c1cccc(-c2ccc(-c3nc4cc(C(F)(F)F)ccc4[nH]3)cc2)c1 (centres undefined)
Plasmodium falciparum, 3D7
  XC50: 690 nM

## CN(C)CCN(C)Cc1ccc(-c2ccc3c(Nc4ccc(Oc5ccccc5)cc4)ccnc3c2)o1
Plasmodium falciparum, 3D7
  XC50: 179 nM

## Cc1cccc2nc(-c3cccc(-c4cccc(NC(=O)CNc5ccc(C(N)=O)cc5)c4)c3)[nH]c12
Plasmodium falciparum, 3D7
  XC50: 282 nM

## COc1ccc(CN2CCC(CNCCc3c(Cl)cccc3Cl)CC2)cc1
Plasmodium falciparum, 3D7
  XC50: 435 nM

## O=C(/C=C/c1ccc(Cl)c(Cl)c1)N1CCC(CN2CCC(c3c(Br)[nH]c4ccccc34)CC2)CC1
Plasmodium falciparum, 3D7
  XC50: 289 nM

## Cc1cc(N2CCCC2)nc(NC(=N)Nc2cccc(C(F)(F)F)c2)n1
Plasmodium falciparum, 3D7
  XC50: 315 nM

## COC(=O)Cn1c2ccccc2c2c(N)c(C(=O)OC)c(C)nc21
Plasmodium falciparum, 3D7
  XC50: 938 nM

## O=C(Nc1ccccc1)OCCOc1ccc(CC2SC(=O)NC2=O)cc1 (centres undefined)
Plasmodium falciparum, 3D7
  XC50: 371 nM

## c1ccn2c(-c3ncnc(NCc4ccc5c(c4)CCO5)n3)cnc2c1
Plasmodium falciparum, 3D7
  XC50: 1190 nM

## C=CCOC(=O)N1CCC(CNCc2ccc(-c3cccc(-c4nc5cc(F)ccc5[nH]4)c3)cc2)C1 (centres undefined)
Plasmodium falciparum, 3D7
  XC50: 140 nM

## COc1cccc2c(N/N=C/c3cccc([N+](=O)[O-])c3)ccnc12
Plasmodium falciparum, 3D7
  XC50: 748 nM

## CCN(CCO)CCCC(C)Nc1ccnc2cc(Cl)ccc12 (centres undefined) [HYDROXYCHLOROQUINE SULFATE]
Plasmodium falciparum, 3D7
  XC50: 762 nM

## O=C(/C=C/c1ccc(Cl)c(Cl)c1)NCCCCCN1CCC(NC(=O)Nc2ccc(OC(F)F)cc2)CC1
Plasmodium falciparum, 3D7
  XC50: 754 nM

## COc1ccc2nc(C)cc(Nc3ccc(Cl)c(Cl)c3)c2c1
Plasmodium falciparum, 3D7
  XC50: 441 nM

## CN(CCNCc1ccc(-c2cccc(-c3nc4ccccc4[nH]3)c2)cc1)S(C)(=O)=O
Plasmodium falciparum, 3D7
  XC50: 945 nM

## CCCCC(=O)Nc1cc(=O)[nH]c2nc(-c3ccc(Cl)cc3)nn12
Plasmodium falciparum, 3D7
  XC50: 708 nM

## Cc1c(F)cc(C(=O)NC2CC2)cc1-c1ccc2c(cnn2S(=O)(=O)c2cccs2)c1
Plasmodium falciparum, 3D7
  XC50: 862 nM

## CN(CCO)Cc1cccc(-c2ccc(NC(=O)c3cccc(C#N)c3)cc2)c1
Plasmodium falciparum, 3D7
  XC50: 796 nM

## Cc1ccc(Cn2ncc(N3CC(C)NC(C)C3)c(Cl)c2=O)cc1NC(=O)Nc1ccc(-c2ccccc2)cc1 (centres undefined)
Plasmodium falciparum, 3D7
  XC50: 739 nM

## CCNCc1ccc(-c2cccc(-c3nc4ccccc4[nH]3)c2)cc1
Plasmodium falciparum, 3D7
  XC50: 550 nM

## Cc1cc(Nc2ccc(Cl)cc2)n2nc(C(F)(F)F)nc2n1
Plasmodium falciparum, 3D7
  XC50: 117 nM

## Fc1ccc(Nc2ccnc3cc(-c4cccc(CNCCN5CCOCC5)c4)ccc23)c(Cl)c1
Plasmodium falciparum, 3D7
  XC50: 142 nM

## Cc1cccc2nc(-c3ccc(-c4ccc(CN5CCCC(O)C5)cc4)cc3)[nH]c12 (centres undefined)
Plasmodium falciparum, 3D7
  XC50: 859 nM

## CN1CCN(CC(=O)Nc2cccc(-c3cccc(-c4nc5ccccc5[nH]4)c3)c2)CC1
Plasmodium falciparum, 3D7
  XC50: 1290 nM

## O=C(C(=O)c1ccc(Nc2ccnc3cc(-c4ccccn4)ccc23)cc1)c1ccccc1
Plasmodium falciparum, 3D7
  XC50: 966 nM

## COc1ccc(CN2CCCN(Cc3cccc(NC(=O)c4cc5ccccc5s4)c3)CC2)cc1
Plasmodium falciparum, 3D7
  XC50: 842 nM

## Cc1cc(CNCCCCCCNCc2ccc(Cl)cc2)ccc1O
Plasmodium falciparum, 3D7
  XC50: 823 nM

## COc1cc(NC(=O)c2cc3c(C)nn(-c4cccc(C(F)(F)F)c4)c3s2)cc(OC)c1OC
Plasmodium falciparum, 3D7
  XC50: 801 nM

## NC1CCCN(Cc2cccc(-c3ccc(-c4nc5ccccc5[nH]4)cc3)c2)C1 (centres undefined)
Plasmodium falciparum, 3D7
  XC50: 722 nM

## CCOc1cc(C)ccc1C1CCN(CCCCNC(=O)c2ccc(NC(=O)c3cc(Cl)cc(Cl)c3)cc2)CC1
Plasmodium falciparum, 3D7
  XC50: 355 nM

## Oc1ccc2nc(NCCCc3ccccc3)nc(NCCc3ccccc3)c2c1
Plasmodium falciparum, 3D7
  XC50: 289 nM

## CCOC(=O)N1CCN(CCCCCNc2cc(C)nc(NC(=N)Nc3ccc(Cl)cc3)n2)CC1
Plasmodium falciparum, 3D7
  XC50: 149 nM

## Cc1ccc(CON2C(N)=NC(N)=NC2(C)C)c(Cl)c1.Cc1ccc(CON2C(N)=NC(N)=NC2(C)C)cc1Cl
Plasmodium falciparum, 3D7
  XC50: 3.2 nM

## OCCC1CCN(Cc2ccc(-c3ccc(-c4nc5ccccc5[nH]4)cc3)cc2)CC1
Plasmodium falciparum, 3D7
  XC50: 768 nM

## COc1ccc2c(c1CCNCCCCNCCc1c(OC)ccc3c1CCCC3)CCCC2
Plasmodium falciparum, 3D7
  XC50: 376 nM

## CCOc1ccccc1CCNCC1CCN(CC2CCCCC2)CC1
Plasmodium falciparum, 3D7
  XC50: 783 nM

## CC[C@H]1CN(C/C=C/c2ccc(OC)cc2)CC[C@H]1CCCc1ccnc2ccc(O)cc12
Plasmodium falciparum, 3D7
  XC50: 657 nM

## COc1c(Br)cc(Br)cc1C(C)=O
Plasmodium falciparum, 3D7
  XC50: 989 nM

## Cc1c(Cl)cccc1S(=O)(=O)Nc1cccc(CCN2CCC(N3CCCCC3)CC2)c1
Plasmodium falciparum, 3D7
  XC50: 830 nM

## COc1cccc(Nc2nc(Nc3cccc(C#N)c3)cc(-c3ccncc3)n2)c1
Plasmodium falciparum, 3D7
  XC50: 764 nM

## CCCCCCn1c(Sc2ccc(C#N)c([N+](=O)[O-])c2)nnc1-c1cccc(Cl)c1
Plasmodium falciparum, 3D7
  XC50: 609 nM

## O=C(NC1CCCCCC1)[C@@H]1CCCN1C(=O)c1ccc(O)c(-c2ccc(Cl)c(Cl)c2)c1
Plasmodium falciparum, 3D7
  XC50: 345 nM

## O=S(=O)(Nc1ccc(CCN2CCC(N3CCCCC3)CC2)cc1)c1ccc2ccccc2c1
Plasmodium falciparum, 3D7
  XC50: 1010 nM

## CN(C)CCC1CCCc2ccc(NC(=O)Nc3ccc(-c4ccncc4)c4ccccc34)cc21 (centres undefined)
Plasmodium falciparum, 3D7
  XC50: 1070 nM

## COc1cc(Cc2cnc(N)nc2N)cc(OCCCCc2nnn[nH]2)c1OC
Plasmodium falciparum, 3D7
  XC50: 286 nM

## Oc1ccc2c(c1CNC1CCCCC1)CCCC2
Plasmodium falciparum, 3D7
  XC50: 938 nM

## O=c1cc(NCCCNCc2sc(Br)nc2Br)[nH]c2ccccc12
Plasmodium falciparum, 3D7
  XC50: 866 nM

## Cc1[nH]c2ccccc2c1C1=CCN(CC2CC2C(=O)c2ccccc2)CC1 (centres undefined)
Plasmodium falciparum, 3D7
  XC50: 349 nM

## COc1cc(C(=O)N2CCOC(CCN3CCC4c5ccccc5CC43)(c3ccc(Cl)c(Cl)c3)C2)cc(OC)c1OC (centres undefined)
Plasmodium falciparum, 3D7
  XC50: 529 nM

## NC1CCCN(Cc2ccc(-c3cccc(-c4nc5cc(F)ccc5[nH]4)c3)cc2)C1 (centres undefined)
Plasmodium falciparum, 3D7
  XC50: 640 nM

## CC1CN(c2cnn(Cc3ccc(NC(=O)Nc4ccc(F)cc4[N+](=O)[O-])cc3)c(=O)c2Cl)CC(C)N1 (centres undefined)
Plasmodium falciparum, 3D7
  XC50: 808 nM

## c1ccc2c(c1)CN(CC1CC1)CC1(CCN(Cc3c[nH]c4cnccc34)CC1)O2
Plasmodium falciparum, 3D7
  XC50: 900 nM

## CCOc1ccc2c(=NN=Cc3ccc(F)cc3)cc(C)[nH]c2c1
Plasmodium falciparum, 3D7
  XC50: 584 nM

## O=C(Nc1cc(Cl)cc(Cl)c1)c1cnn(-c2ccc(F)cc2)c1C1CCNCC1
Plasmodium falciparum, 3D7
  XC50: 853 nM

## Oc1c(C(Nc2ccccn2)c2ccco2)cc(Cl)c2cccnc12 (centres undefined)
Plasmodium falciparum, 3D7
  XC50: 1010 nM

## O=C(NCCCCN1CCCC2c3ccc(O)cc3CCC21)c1ccc(-c2ccccc2)cc1 (centres undefined)
  XC50: 945 nM
Plasmodium falciparum, 3D7
  XC50: 732 nM

## COCCNCc1nc(-c2ccc3c(Nc4ccc(Cl)cc4F)ccnc3c2)cs1
Plasmodium falciparum, 3D7
  XC50: 1080 nM

## O=C(Nc1cccc([N+](=O)[O-])c1)N(Cc1ccc(Cl)c(Cl)c1)C1CCNCC1
Plasmodium falciparum, 3D7
  XC50: 719 nM

## CC(C)C[C@@H](CNC[C@H](CC(C)C)NC(=O)OC(C)(C)C)NC(=O)OC(C)(C)C
Plasmodium falciparum, 3D7
  XC50: 1250 nM

## Nc1nc(-c2ccc3c(Nc4ccc(F)c(Cl)c4)ccnc3c2)cs1
Plasmodium falciparum, 3D7
  XC50: 868 nM

## COc1ccc(/N=[N+](\[O-])c2ccccc2/[N+]([O-])=N/c2ccc(OC)cc2)cc1
Plasmodium falciparum, 3D7
  XC50: 987 nM

## O=C1NC(c2ccccc2)C2(CCN(CC(O)COc3cccc4ncccc34)CC2)O1 (centres undefined)
Plasmodium falciparum, 3D7
  XC50: 743 nM

## Cc1cccc(CNc2nc(C)cc(N[C@@H](Cc3ccccc3)C(=O)NC3CCCC3)n2)c1
Plasmodium falciparum, 3D7
  XC50: 653 nM

## O=C(Nc1ccnc2ccccc12)NC1CCN(Cc2ccccc2)CC1
Plasmodium falciparum, 3D7
  XC50: 988 nM

## Cc1cc(CN2CC[C@H](NC(=O)c3ccc(Cl)c(Cl)c3)C2)ccc1OCCN1CCNCC1
Plasmodium falciparum, 3D7
  XC50: 944 nM

## COc1ccc(CN(C)CCCOc2ccc(NC(=O)c3cccc4c(=O)c5cccc(F)c5[nH]c34)cc2)cc1OC
Plasmodium falciparum, 3D7
  XC50: 637 nM

## Cc1cccc2nc(-c3ccc(-c4cccc(NC(=O)c5cnccc5C(F)(F)F)c4)cc3)[nH]c12
Plasmodium falciparum, 3D7
  XC50: 998 nM

## Fc1ccc2[nH]c(-c3ccc(-c4ccc(CN5CCC(CCN6CCCCC6)CC5)cc4)s3)nc2c1
Plasmodium falciparum, 3D7
  XC50: 142 nM

## COc1cccc(C=CC(=O)NC2CCC(CN3CCC(c4c[nH]c5ccccc45)CC3)CC2)c1OC (centres undefined)
Plasmodium falciparum, 3D7
  XC50: 740 nM

## Cc1ccc(CCNCC(O)c2cccc(C(F)(F)F)c2)cc1 (centres undefined)
Plasmodium falciparum, 3D7
  XC50: 868 nM

## CCCOc1ccc(C=C(CC(=O)O)c2nc3ccccc3s2)cc1OCC
Plasmodium falciparum, 3D7
  XC50: 554 nM

## O=C(/C=C/c1ccc(Cl)c(Cl)c1)NCCCN1CCC(c2c[nH]c3ccccc23)CC1
Plasmodium falciparum, 3D7
  XC50: 966 nM

## NC1CCN(Cc2ccc(-c3ccc(-c4nc5cc(F)ccc5[nH]4)cc3)cc2)C1 (centres undefined)
Plasmodium falciparum, 3D7
  XC50: 184 nM

## Cc1ccc(-c2cnc(N)c3cc(-c4ccnc(N)n4)ccc23)cc1
Plasmodium falciparum, 3D7
  XC50: 808 nM
